Experiments:
[1] = Determination of the logP values by HPLC on reversed-phase column (C 18); type: physicochemical
Experimental: Determination of the logP values:
The lambda max values were determined in the maxima of the chromatographic signals using the UV spectra from 190 nm to 400 nm.

Boophilus microplus = Boophilus microplus - test (injection into adult ticks); type: in vivo; conditions: application rate of 20 µg/animal; injected into the abdomen of adult ticks; seven days
Experimental: Boophilus microplus - test Solvent: dimethylsulfoxide To produce a suitable preparation of active compound, 1 part by weight of active compound is mixed with the stated amount of solvent, and the concentrate is diluted with containing solvent to the desired concentration. Adult ticks (Boophilus microplus) are treated by injected with compound solution of the desired concentration into the abdomen. Ticks are transferred into replica plates and incubated in a climate chamber for seven days. Eggs which are not clearly fertile or infertile are further incubated for another 35 days until larvae hatch from the untreated controls. After the specified period of time, the laying of fertile eggs in % is determined. 100 % means that all eggs have been fertile; 0 % means that none of the eggs have been fertile.

Musca domestica = Musca domestica - test; type: in vivo; conditions: adults; for mortality at 100 ppm: application rate of 100ppm; for mortality at 20 ppm: application rate of 20ppm
Experimental: (§1) Solvent: dimethyl sulfoxide
(§2) To produce a suitable preparation of active compound, 10 mg of active compound are dissolved in 0.5 ml solvent, and the concentrate is diluted with water to the desired concentration.
Prior to the assay, a piece or kitchen sponge is soaked with a mixture of sugar and compound solution and placed into a container. 10 adults (Musca domestica) are placed into the container and closed with a perforated lid.
After the specified period of time, mortality in % is determined. 100 % means that all the flies have been killed; 0 % means that none of the flies have been killed.

Lucilia cuprina larvae = assay: Lucilia cuprina - test (larvae); type: in vivo; conditions: in Ovis aries, read-out: activity (mortality in %)
Experimental: as §1, §2
Approximately 20 -30 (Lucilia cuprina larvae) are transferred into a test tube containing 1cm^3 of minced horse meat and 0.5 ml aqueous dilution of test compound.
After the specified period of time, mortality in % is determined. 100 % means that all the larvae have been killed; 0 % means that none of the larvae have been killed.

[2] = 0.001 m aqueous nh4hco3/acetonitrile, HPLC, reversed-phase C 18, 40 °C, [c] 0.001 molar aqueous NH4HCO3 solution and acetonitrile at pH 7.8, linear gradient from 10 % to 95 % acetonitrile (v/v)
[3] = 0.1% aqueous phosphoric acid/acetonitrile, HPLC, reversed-phase C 18, 40 °C, [a] 0.1% aqueous phosphoric acid and acetonitrile at pH 2.3, linear gradient from 10 to 95 % (v/v) acetonitrile
[4] = 0.001 m aqueous nh4hco3/acetonitrile, method [c]: 0.001 molar aqueous NH4HCO3 solution and acetonitrile at pH 7.8, linear gradient from 10 % to 95 % acetonitrile (v/v), HPLC reversed-phase C 18, 40 °C
[5] = 0.1% aqueous phosphoric acid/acetonitrile, method [a]: 0.1% aqueous phosphoric acid and acetonitrile at pH 2.3, linear gradient from 10 to 95 % (v/v) acetonitrile, HPLC reversed-phase C 18, 40 °C

CSC[C@H](C)NC(=O)c1c(I)cccc1C(=O)Nc1ccc(C(C(F)F)C(F)(F)F)cc1Br (stereo partly drawn) [Compound 227]
chromatographic logP [1, 2]: 3.54 | chromatographic logP [1, 3]: 3.51 | activity (laying of fertile eggs in %) (Boophilus microplus): ≥ 80% | mortality at 100 ppm (Musca domestica): ≥ 80% | mortality at 100 ppm (Lucilia cuprina larvae): ≥ 80%

CCSC[C@H](C)NC(=O)c1c(I)cccc1C(=O)Nc1ccc(C(C(F)F)C(F)(F)F)cc1Cl (stereo partly drawn) [Compound 235]
chromatographic logP [1, 2]: 3.79 | chromatographic logP [1, 3]: 3.76 | activity (laying of fertile eggs in %) (Boophilus microplus): ≥ 80% | mortality at 100 ppm (Musca domestica): ≥ 80% | mortality at 100 ppm (Lucilia cuprina larvae): ≥ 80%

CCSC[C@H](C)NC(=O)c1c(I)cccc1C(=O)Nc1ccc(C(C(F)F)C(F)(F)F)cc1Br (stereo partly drawn) [Compound 243]
chromatographic logP [1, 2]: 3.8 | chromatographic logP [1, 3]: 3.78 | activity (laying of fertile eggs in %) (Boophilus microplus): ≥ 80% | mortality at 100 ppm (Musca domestica): ≥ 80% | mortality at 100 ppm (Lucilia cuprina larvae): ≥ 80%

CCS(=O)(=O)C[C@H](C)NC(=O)c1c(I)cccc1C(=O)Nc1ccc(C(F)(C(F)F)C(F)(F)F)cc1Cl (stereo partly drawn) [Compound 251]
chromatographic logP [1, 2]: 3.18 | chromatographic logP [1, 3]: 3.12 | activity (laying of fertile eggs in %) (Boophilus microplus): ≥ 80% | mortality at 100 ppm (Musca domestica): ≥ 80% | mortality at 100 ppm (Lucilia cuprina larvae): ≥ 80%

C[C@@H](CS(C)(=O)=O)NC(=O)c1c(I)cccc1C(=O)Nc1ccc(C(C(F)F)C(F)(F)F)cc1F (stereo partly drawn) [Compound 291]
chromatographic logP [1, 2]: 2.54 | chromatographic logP [1, 3]: 2.5 | activity (laying of fertile eggs in %) (Boophilus microplus): ≥ 80% | mortality at 100 ppm (Musca domestica): ≥ 80% | mortality at 100 ppm (Lucilia cuprina larvae): ≥ 80%

CCS(=O)(=O)C[C@H](C)NC(=O)c1c(I)cccc1C(=O)Nc1ccc(C(C(F)F)C(F)(F)F)cc1Br (stereo partly drawn) [Compound 299]
chromatographic logP [1, 2]: 2.92 | chromatographic logP [1, 3]: 2.87 | activity (laying of fertile eggs in %) (Boophilus microplus): ≥ 80% | mortality at 100 ppm (Musca domestica): ≥ 80% | mortality at 100 ppm (Lucilia cuprina larvae): ≥ 80%

CCS(=O)(=O)C[C@H](C)NC(=O)c1c(I)cccc1C(=O)Nc1ccc(C(C(F)F)C(F)(F)F)cc1F (stereo partly drawn) [Compound 315]
chromatographic logP [1, 2]: 2.69 | chromatographic logP [1, 3]: 2.65 | activity (laying of fertile eggs in %) (Boophilus microplus): ≥ 80% | mortality at 100 ppm (Musca domestica): ≥ 80% | mortality at 100 ppm (Lucilia cuprina larvae): ≥ 80%

Cc1c(NC(=O)c2cccc(I)c2C(=O)N[C@@H](C)C[S+](C)[O-])ccc(C(F)(F)C(F)(F)F)c1F (stereo partly drawn) [Compound 323]
chromatographic logP [1, 3]: 2.5 | activity (laying of fertile eggs in %) (Boophilus microplus): ≥ 80% | mortality at 100 ppm (Musca domestica): ≥ 80% | mortality at 100 ppm (Lucilia cuprina larvae): ≥ 80%

Cc1c(NC(=O)c2cccc(Cl)c2C(=O)N[C@@H](C)CS(C)(=O)=O)ccc(C(F)(F)C(F)(F)F)c1F [Compound 363]
chromatographic logP [1, 3]: 2.82 | activity (laying of fertile eggs in %) (Boophilus microplus): ≥ 80% | mortality at 100 ppm (Musca domestica): ≥ 80% | mortality at 100 ppm (Lucilia cuprina larvae): ≥ 80%

Cc1cc(C(F)(C(F)F)C(F)(F)F)ccc1NC(=O)c1cccc(Cl)c1C(=O)N[C@@H](C)CS(C)(=O)=O (stereo partly drawn) [Compound 371]
chromatographic logP [1, 4]: 2.64 | chromatographic logP [1, 5]: 2.61 | activity (laying of fertile eggs in %) (Boophilus microplus): ≥ 80% | mortality at 100 ppm (Musca domestica): ≥ 80% | mortality at 100 ppm (Lucilia cuprina larvae): ≥ 80%

CCS(=O)(=O)C[C@H](C)NC(=O)c1c(Cl)cccc1C(=O)Nc1ccc(C(F)(F)C(F)(F)F)c(F)c1C [Compound 372]
chromatographic logP [1, 5]: 3.01 | activity (laying of fertile eggs in %) (Boophilus microplus): ≥ 80% | mortality at 20 ppm (Musca domestica): ≥ 80% | mortality at 100 ppm (Lucilia cuprina larvae): ≥ 80%

CSC[C@H](C)NC(=O)c1c(Br)cccc1C(=O)Nc1ccc(C(F)(C(F)(F)F)C(F)(F)F)c(F)c1C [Compound 398]
chromatographic logP [1, 5]: 4.31 | activity (laying of fertile eggs in %) (Boophilus microplus): ≥ 80% | mortality at 100 ppm (Musca domestica): ≥ 80% | mortality at 100 ppm (Lucilia cuprina larvae): ≥ 80%

Cc1c(NC(=O)c2cccc(Cl)c2C(=O)N[C@@H](C)C[S+](C)[O-])ccc(C(C(F)(F)F)C(F)(F)F)c1F (stereo partly drawn) [Compound 406]
chromatographic logP [1, 4]: 2.41 | chromatographic logP [1, 5]: 2.5 | activity (laying of fertile eggs in %) (Boophilus microplus): ≥ 80% | mortality at 100 ppm (Musca domestica): ≥ 80% | mortality at 100 ppm (Lucilia cuprina larvae): ≥ 80%

Cc1cc(C(C(F)(F)F)C(F)(F)F)c(F)cc1NC(=O)c1cccc(Cl)c1C(=O)N[C@@H](C)C[S+](C)[O-] (stereo partly drawn) [Compound 414]
chromatographic logP [1, 4]: 2.51 | chromatographic logP [1, 5]: 2.58 | activity (laying of fertile eggs in %) (Boophilus microplus): ≥ 80% | mortality at 100 ppm (Musca domestica): ≥ 80% | mortality at 100 ppm (Lucilia cuprina larvae): ≥ 80%

CSC[C@H](C)NC(=O)c1c(I)cccc1C(=O)Nc1ccc(C(F)(C(F)(F)F)C(F)(F)F)c(F)c1C [Compound 423]
chromatographic logP [1, 5]: 4.41 | activity (laying of fertile eggs in %) (Boophilus microplus): ≥ 80% | mortality at 100 ppm (Musca domestica): ≥ 80% | mortality at 100 ppm (Lucilia cuprina larvae): ≥ 80%

CCS(=O)(=O)C[C@H](C)NC(=O)c1c(Br)cccc1C(=O)Nc1ccc(C(C)(F)C(F)F)cc1Br (stereo partly drawn) [Compound 424]
chromatographic logP [1, 5]: 3.06 | activity (laying of fertile eggs in %) (Boophilus microplus): ≥ 80% | mortality at 20 ppm (Musca domestica): ≥ 80% | mortality at 100 ppm (Musca domestica): ≥ 80% | mortality at 100 ppm (Lucilia cuprina larvae): ≥ 80%
